We go through 18 compounds from patent US20210395239A1 (Hoffmann-La Roche Inc., priority 2018, published 2021).

SMILES strings stand for the structures.

The test addresses T1, human TLR7 (Homo sapiens, UniProt Q9NYK1).
T1 construct: host or cells: HEK293 (HEK-Blue hTLR7)
T1 sequence (Q9NYK1 27-1049): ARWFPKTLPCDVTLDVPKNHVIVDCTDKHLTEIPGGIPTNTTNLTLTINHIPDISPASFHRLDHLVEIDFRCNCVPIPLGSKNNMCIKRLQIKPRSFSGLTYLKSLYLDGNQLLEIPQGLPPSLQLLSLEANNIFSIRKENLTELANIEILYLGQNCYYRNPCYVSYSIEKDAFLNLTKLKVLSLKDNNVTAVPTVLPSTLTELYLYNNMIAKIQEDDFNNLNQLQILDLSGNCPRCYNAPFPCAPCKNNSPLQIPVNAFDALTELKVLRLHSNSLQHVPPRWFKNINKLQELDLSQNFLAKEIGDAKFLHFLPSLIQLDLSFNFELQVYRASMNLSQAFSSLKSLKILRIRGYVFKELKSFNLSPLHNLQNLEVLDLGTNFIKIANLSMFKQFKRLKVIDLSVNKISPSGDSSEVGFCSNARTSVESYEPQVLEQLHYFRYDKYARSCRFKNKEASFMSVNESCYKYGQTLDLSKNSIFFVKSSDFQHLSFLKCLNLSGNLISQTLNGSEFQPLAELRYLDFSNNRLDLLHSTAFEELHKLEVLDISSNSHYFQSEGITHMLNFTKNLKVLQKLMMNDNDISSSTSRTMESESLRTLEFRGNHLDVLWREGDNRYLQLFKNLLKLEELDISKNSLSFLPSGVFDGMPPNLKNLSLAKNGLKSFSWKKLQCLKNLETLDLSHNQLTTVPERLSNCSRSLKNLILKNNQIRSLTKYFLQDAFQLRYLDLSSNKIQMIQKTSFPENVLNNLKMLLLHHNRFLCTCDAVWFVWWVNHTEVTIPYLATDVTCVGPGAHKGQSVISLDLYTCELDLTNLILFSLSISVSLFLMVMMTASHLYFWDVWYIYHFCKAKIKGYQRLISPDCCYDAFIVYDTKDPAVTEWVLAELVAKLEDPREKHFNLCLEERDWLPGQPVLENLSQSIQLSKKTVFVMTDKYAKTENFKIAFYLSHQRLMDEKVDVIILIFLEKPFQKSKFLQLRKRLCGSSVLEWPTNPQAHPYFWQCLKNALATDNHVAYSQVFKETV
Kind of test: HEK293-Blue-hTLR-7 cells assay (SEAP reporter, R848 stimulation). It is filed as cell-based. The conditions noted are these: HEK293-Blue-hTLR7 cells, R848, 20 hrs; read-out: HEK/hTLR7 IC50. In a few lines:
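HEK293-Blue-hTLR7 cells (NF-κB/AP-1-driven SEAP reporter) were stimulated with R848 alongside serially diluted compound at 1% final DMSO for 20 h at 37 °C. Supernatant SEAP was then developed with QUANTI-Blue for 2 h at 37 °C and absorbance read at 620–655 nm; antagonism is measured as reduced reporter signal.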
Regarding `[2H]c1nc2c(C#N)ccc(N3C[C@H](CN4CCN(c5nc(C)cc(N6CC(N)C6)n5)CC4)O[C@H](C)C3)c2nc1[2H]` [Example 124, 8-[(2S,6R)-2-[[4-[4-(3-aminoazetidin-1-yl)-6-methyl-pyrimidin-2-yl]piperazin-1-yl]methyl]-6-methyl-morpholin-4-yl]-2,3-dideuterio-quinoxaline-5-carbonitrile], the IC50 came to 5 nM. In the case of `Cc1cc(N2C[C@@H](N)[C@](C)(O)C2)nc(N2CCN(C[C@H]3CN(c4ccc(C#N)c5nccnc45)C[C@@H](C)O3)CC2)n1` [Example 125, 8-[(2S,6R)-2-[[4-[4-[(3R,4R)-4-amino-3-hydroxy-3-methyl-pyrrolidin-1-yl]-6-methyl-pyrimidin-2-yl]piperazin-1-yl]methyl]-6-methyl-morpholin-4-yl]quinoxaline-5-carbonitrile] it was 47 nM. Under `Cc1ccc(N2C[C@H](CN3CCN(c4ccnc(N5CC6(CNCCO6)C5)n4)CC3)O[C@H](C)C2)c2nccnc12` [Example 126, 2-[4-[4-[[(2S,6R)-6-methyl-4-(8-methylquinoxalin-5-yl)morpholin-2-yl]methyl]piperazin-1-yl]pyrimidin-2-yl]-5-oxa-2,8-diazaspiro[3.5]nonane] stands 21 nM; under `Cc1ccc(N2C[C@H](CN3CCN(c4ccnc(N5CCN[C@@H](C)C5)n4)CC3)O[C@H](C)C2)c2nccnc12` [Example 127, (2R,6S)-2-methyl-6-[[4-[2-[(3S)-3-methylpiperazin-1-yl]pyrimidin-4-yl]piperazin-1-yl]methyl]-4-(8-methylquinoxalin-5-yl)morpholine], 29 nM. In the case of `Cc1ccc(N2C[C@H](CN3CCN(c4ccnc(N5CCN[C@H](C)C5)n4)CC3)O[C@H](C)C2)c2nccnc12` [Example 128, (2R,6S)-2-methyl-6-[[4-[2-[(3R)-3-methylpiperazin-1-yl]pyrimidin-4-yl]piperazin-1-yl]methyl]-4-(8-methylquinoxalin-5-yl)morpholine] it was 30 nM. Consider `Cc1ccc(N2C[C@H](CN3CCN(c4ccnc(N5C[C@H]6NCCO[C@@H]6C5)n4)CC3)O[C@H](C)C2)c2nccnc12` [Example 129, (4aR,7aR)-6-[4-[4-[[(2S,6R)-6-methyl-4-(8-methylquinoxalin-5-yl)morpholin-2-yl]methyl]piperazin-1-yl]pyrimidin-2-yl]-3,4,4a,5,7,7a-hexahydro-2H-pyrrolo[3,4-b][1,4]oxazine], for which the IC50 was 20 nM. Under `Cc1ccc(N2C[C@H](CN3CCN(c4ccnc(N5CC(N)C5)n4)CC3)O[C@H](C)C2)c2nccnc12` [Example 130, 1-[4-[4-[[(2S,6R)-6-methyl-4-(8-methylquinoxalin-5-yl)morpholin-2-yl]methyl]piperazin-1-yl]pyrimidin-2-yl]azetidin-3-amine] stands 16 nM; under `[2H]c1ccc2c(N3C[C@H](CN4CCN(c5nc(OC)cc(N6CC(C)(N)C6)n5)CC4)O[C@H](C)C3)ccc(C#N)c2n1` [Example 131, 5-[(2S,6R)-2-[[4-[4-(3-amino-3-methyl-azetidin-1-yl)-6-methoxy-pyrimidin-2-yl]piperazin-1-yl]methyl]-6-methyl-morpholin-4-yl]-2-deuterio-quinoline-8-carbonitrile], 32 nM. As to `[2H]c1ccc2c(N3C[C@H](CN4CCN(c5ccc(N6CC(C)(N)C6)nc5)CC4)O[C@H](C)C3)ccc(C#N)c2n1` [Example 132, 5-[(2S,6R)-2-[[4-[6-(3-amino-3-methyl-azetidin-1-yl)-3-pyridyl]piperazin-1-yl]methyl]-6-methyl-morpholin-4-yl]-2-deuterio-quinoline-8-carbonitrile], the IC50 is 23 nM. With `[2H]c1ccc2c(N3C[C@H](CN4CCN(c5cnc(N6CC(C)(N)C6)cc5C)CC4)O[C@H](C)C3)ccc(C#N)c2n1` [Example 133, 5-[(2S,6R)-2-[[4-[6-(3-amino-3-methyl-azetidin-1-yl)-4-methyl-3-pyridyl]piperazin-1-yl]methyl]-6-methyl-morpholin-4-yl]-2-deuterio-quinoline-8-carbonitrile], the IC50 stood at 41 nM.

As to `[2H]c1ccc2c(N3C[C@H](CN4CCN(c5nc(C)cc(N6C[C@H](OC)[C@@H](N)C6)n5)CC4)O[C@H](C)C3)ccc(C#N)c2n1` [Example 134, 5-[(2S,6R)-2-[[4-[4-[(3S,4S)-3-amino-4-methoxy-pyrrolidin-1-yl]-6-methyl-pyrimidin-2-yl]piperazin-1-yl]methyl]-6-methyl-morpholin-4-yl]-2-deuterio-quinoline-8-carbonitrile], the IC50 was found to be 25 nM. As for `[2H]c1ccc2c(N3C[C@H](CN4CCN(c5nc(C)cc(N6CC(C)(N)C6)n5)CC4)O[C@H](C)C3)ccc(C#N)c2n1` [Example 135, 5-[(2S,6R)-2-[[4-[4-(3-amino-3-methyl-azetidin-1-yl)-6-methyl-pyrimidin-2-yl]piperazin-1-yl]methyl]-6-methyl-morpholin-4-yl]-2-deuterio-quinoline-8-carbonitrile], the IC50 was found to be 16 nM. In the case of `[2H]c1ccc2c(N3C[C@H](CN4CCN(c5nc(C)cc(N6CC(N)C6)n5)CC4)O[C@H](C)C3)ccc(C#N)c2n1` [Example 136, 5-[(2S,6R)-2-[[4-[4-(3-aminoazetidin-1-yl)-6-methyl-pyrimidin-2-yl]piperazin-1-yl]methyl]-6-methyl-morpholin-4-yl]-2-deuterio-quinoline-8-carbonitrile] it was 7 nM; in that of `[2H]c1ccc2c(N3C[C@H](CN4CCN(c5ccc(N6CC(C)(N)C6)nc5C)CC4)O[C@H](C)C3)ccc(C#N)c2n1` [Example 137, 5-[(2S,6R)-2-[[4-[6-(3-amino-3-methyl-azetidin-1-yl)-2-methyl-3-pyridyl]piperazin-1-yl]methyl]-6-methyl-morpholin-4-yl]-2-deuterio-quinoline-8-carbonitrile], 19 nM; in that of `[2H]c1ccc2c(N3C[C@H](CN4CC(c5ccc(N6CC(C)(N)C6)nc5)C4)O[C@H](C)C3)ccc(C#N)c2n1` [Example 138, 5-[(2S,6R)-2-[[3-[6-(3-amino-3-methyl-azetidin-1-yl)-3-pyridyl]azetidin-1-yl]methyl]-6-methyl-morpholin-4-yl]-2-deuterio-quinoline-8-carbonitrile], 5 nM. Regarding `[2H]c1ccc2c(N3C[C@H](CN4CCN(c5ncc(N6CC(C)(N)C6)cc5C)CC4)O[C@H](C)C3)ccc(C#N)c2n1` [Example 139, 5-[(2S,6R)-2-[[4-[5-(3-amino-3-methyl-azetidin-1-yl)-3-methyl-2-pyridyl]piperazin-1-yl]methyl]-6-methyl-morpholin-4-yl]-2-deuterio-quinoline-8-carbonitrile], the IC50 was 20 nM. For `[2H]c1ccc2c(N3C[C@H](CN4CC(c5ccc(N6C[C@H](OC)[C@@H](N)C6)cc5)C4)O[C@H](C)C3)ccc(C#N)c2n1` [Example 140, 5-[(2S,6R)-2-[[3-[4-[(3S,4S)-3-amino-4-methoxy-pyrrolidin-1-yl]phenyl]azetidin-1-yl]methyl]-6-methyl-morpholin-4-yl]-2-deuterio-quinoline-8-carbonitrile], the IC50 came to 22 nM. In the case of `[2H]c1ccc2c(N3C[C@H](CN4CC(c5ccc(N6CC(C)(N)C6)cc5)C4)O[C@H](C)C3)ccc(C#N)c2n1` [Example 141, 5-[(2S,6R)-2-[[3-[4-(3-amino-3-methyl-azetidin-1-yl)phenyl]azetidin-1-yl]methyl]-6-methyl-morpholin-4-yl]-2-deuterio-quinoline-8-carbonitrile] it was 4 nM.
